Test results reported in patent US20090123940A1, “MOLECULES INVOLVED IN SYNAPTOGENESIS AND USES THEREFOR” (THE JOHNS HOPKINS UNIVERSITY, priority 2007, published 2009).

Key:
Format in all cases: cell-based
[1] = tested on: LFC-NPR (TACE cleavage of NPR); test: Western blot of LFC-NPR in lysates of cultured cortical neurons after DHPG
Experimental: Cell Culture, Transfection, Western Blot Analysis, and Co-immunoprecipitation analysis. HEK293T and […] (ATCC, Manassas, Va.) cell maintenance and transfection methods have been described previously (Xu et al., supra). Preparation and transfection of cultured hippocampal neurons were described previously (Rumbaugh et al., J Neurosci 23:4567-76, 2003). Western blot analysis of homogenates of HEK293T cells, cultured neurons, and brain extracts was performed as described previously (Xu et al., supra). Co-IP analysis to measure interaction between NPR and AMPAR was performed as described (Xu et al., supra).
Ab LFC-NPR was used to examine the possibility that mGluR1/5 might regulate cleavage of NPR. mGluR1/5 activates PKC via phospholipase C and the production of diacylglycerol (DAG) and inositol triphosphate (IP3) that releases intracellular Ca^2+. […] Ab LFC-NPR detected a ˜60 kDa band from lysates that increased in intensity (expressed as a percent control) over time after stimulation with DHPG. No specific band was detected in the medium by Ab LFC-NPR or other NPR Abs. Absence of LFC-NPR in the medium of neurons was consistent with the observation that both Narp and NP1 were absent from medium even though they are secreted proteins detected on the cell surface using live labeling methods. […]

GluR1 = test: Immunocytochemical staining of surface and internalized GluR1 in cultured hippocampal neurons
Experimental: Immunocytochemical staining. Immunocytochemical staining of heterologous cells was performed as described (Xu et al., supra). For PMA-stimulation experiments, PMA (Sigma Cat #: P8139) at (150 nM) was added 90 minutes prior to live staining. Images were viewed and captured using Nikon E800 epifluorescence microscope fitted with a Princeton Instruments CCD camera. For live staining, neurons cultured on coverslips were incubated at 10° C. with the appropriate primary antibodies at the indicated dilutions in conditioned culture medium for 20 min. They were then washed with PBS and fixed with 4% paraformaldehyde/4% sucrose in PBS for 20 min at room temperature. Cells were permeablized with 0.2% Triton X-100 in PBS for 5 min and then blocked in 10% normal goat serum in PBS for 1 hr at room temperature. If intracellular proteins were of interest, coverslips were then incubated with antibody diluted in 10% normal goat serum for 1 hr at room temperature or overnight at 4° C. Coverslips were washed with PBS and incubated with secondary antibody conjugated to Alexa488 and Alexa555 (1:500 in 10% normal goat serum, Molecular Probes Eugene, Oreg.). Coverslips were mounted using the Prolong Antifade Kit (Molecular Probes, Eugene, Oreg.). For immunocytochemistry studies, mGluR1/5 were activated using the selective agonist (S)-DHPG (Tocris Cat.# 0805) with mGluR5 allosteric potentiator DFB (Tocris Cat.#1625). Neurons were incubated with DFB (50 μM) for 5 min and then DHPG (50 μM) for an additional 5 min in neuronal incubation medium and then transferred into the original incubation medium. […] Cells were incubated at 37° C. to allow endocytosis. At indicated time points, cells were incubated with N-terminal GluR1 mouse antibody (JH 4093; 0.2 μg/100 μl; kind gift from T. […] (to block endocytosis during staining). Cells were then processed for immunofluorescent staining as described above. An acid strip protocol was employed to measure endocytosed antibody labeled GluR1 (Snyder et al., 2001). Neurons were washed with progressively cooler NIM to slow basal endocytosis. Cells were then live labeled at 10° C. with GluR1 N-terminal antibody (0.2 μg/100 μL JH4094) antibody in NIM for 20 min. After washing unbound excess antibody, cells were incubated sequentially with DFB, DHPG, and original incubation medium at 37° C., as described above. After appropriate incubation times, cells were washed with 4° C. TBS. […] Neurons were then washed with 4° C. TBS followed by processing for immunofluorescent staining as described above. All neurons were viewed and captured using UltraVIEW spinning disk confocal microscope (PerkinElmer Life Sciences, Wellesley, Mass., USA) with a Nikon Eclipse TE 200 microscope and a 63× objective (Nikon, Melville, N.Y.). Images were acquired and saved as Tiff files with a dynamic range of 65536 grey levels (16-bit binary). Image analysis was performed using Metamorph imaging software (Universal Imaging, Downingtown, Pa.). For quantification of the punctate structures (e.g. GluR1), images were thresholded by grey value to differentiate single puncta. Segments of dendrites were selected and number of puncta was calculated per […] of length dendrite. Figures show ratios of calculated mean densities (number of puncta per unit length) from treated/control. Error bars were calculated using SEM and Gaussian error propagation. n=number of measured dendrites. Significance was determined by paired Student's T-test.

[2] = tested on: surface GluR1 / surface LFC-NPR; test: Cell surface biotinylation of cultured cortical neurons; settings: for surface LFC-NPR: cultured cortical neurons after DHPG treatment
Experimental: Cell Surface Biotinylation. Surface biotinylation of GluR1 at the plasma membrane was described previously (Snyder et al., Nat Neurosci 4:1079-85, 2001) with some modifications. Cultured cortical neurons were treated with DHPG for 5 minutes. Medium was then replaced with previously cultured medium. After 45 minutes, neurons were cooled on ice and washed with cold PBS containing 1 mM CaCl2 and 0.5 mM MgCl2 (PBS++). Cell surface proteins were labeled with cell-impermeable EZ-Link Sulfo-NHS-SS-Biotin (sulfosuccinimidyl-2-(biotinamido)ethyl-1,3-dithiopropionate; Pierce) in PBS^++ (1 mg/mL) at 4° C. for 30 min. Unreacted biotin was quenched by washing cells with cold 100 mM Glycine (pH 7.4). Cultures were lysed using RIPA buffer and homogenates were centrifuged at 13, 200 rpm to remove debris. 10% of the homogenates were used for total protein. 90% of the remaining homogenates were incubated with immobilized NeutrAvidin beads (Pierce). After washing with RIPA buffer, bound proteins were eluted with 2× Laemmli sample buffer supplemented with 2% β-ME. The eluted proteins were subjected to SDS-PAGE and Western blotting followed by ECL (Amersham Biosciences) and exposure to autoradiography film. Primary antibody concentrations were as follows: GluR1N at 0.12 μg/mL and β-actin at 1:1000. Quantification performed on digital images scanned from exposure matched autoradiographs. Densitometric analysis of these digital images was performed using ImageJ software (Version 1.33, National Institutes of Health). Significance was determined by paired Student's T-test.

[3] = cultured hippocampal neurons DIV 14-17, 45 min after DHPG, TAPI-2 = pretreatment (50 μM) before DHPG
[4] = neurons derived from control mice
[5] = TAPI-2 = pretreatment before DHPG
[6] = cultured cortical neurons, 45 min after DHPG treatment, TAPI-2 = pretreatment before DHPG

Compound | increase of LFC-NPR levels in lysates ([1]; 90 minutes after stimulation with 50 μM DHPG for 5 minutes, cultured cortical neurons ~DIV 14) | surface GluR1 puncta density (GluR1; DHPG treated neurons cultured from NP TKO mice) | surface GluR1 puncta density (GluR1; DHPG treated neurons derived from control mice) | surface GluR1 puncta density (GluR1; [3]) | internalized GluR1 (acid-strip protocol) (GluR1; [4]) | time to maximal internalized GluR1 after addition of DHPG (GluR1; [4]) [min] | GluR1 internalization (acid-strip protocol) (GluR1; neurons from NP TKO mice) | surface LFC-NPR [2, 5] | surface GluR1 [2, 6] | surface GluR1 ([2]; neurons cultured from NP TKO mouse cortex, after DHPG) | surface GluR1 ([2]; neurons cultured from control mouse cortex, 45 min after DHPG) | DHPG-stimulated increase in LFC-NPR ([1]; pretreatment of cultured neurons with TAPI-2)
N[C@H](C(=O)O)c1cc(O)cc(O)c1 [DHPG, (S)-3,5-dihydroxyphenylglycine] | 60.7%±2.5% | 113.4±6.3 % of vehicle control | 68.5±6.0 % of vehicle control | 47.6±8.5 % of vehicle control | evoked an increase in internalized GluR1 | ≤ 5 | did not increase GluR1 internalization | 84.3±7.2 % of vehicle control | 74.1±2.2 % of vehicle control | 98.4±9.7 % of vehicle control | 46.3±8.3 % of vehicle control | 
CC(C)C[C@H](CC(=O)NO)C(=O)N[C@H](C(=O)N[C@@H](C)C(=O)NCCN)C(C)(C)C [TAPI-2] |  |  |  | 84.7±12.6 % of vehicle control |  |  |  | 108.9±16.0 % of vehicle control | 102.4±4.9 % of vehicle control |  |  | blocked
